Results as given in ChEMBL document CHEMBL6071160, “Identification of a novel 10-hydroxyevodiamine prodrug as a potent topoisomerase inhibitor with improved aqueous solubility for treatment of hepatocellular carcinoma” (Eur J Med Chem, 2024).
Activity calls are given as the source filed them. The rule behind the calls is not given here.

Assays:
HepG2 = assay: Antiproliferative activity against human HepG2 cells assessed as inhibition of cell proliferation incubated for 72 hrs by MTT assay; assay type: functional, cell-based; settings: HepG2, 72 h
SK-HEP1 [1] = assay: Antiproliferative activity against human SK-HEP1 cells assessed as inhibition of cell proliferation incubated for 72 hrs by MTT assay; assay type: functional, cell-based; settings: SK-HEP1, 72 h
SMMC-7721 = assay: Antiproliferative activity against human SMMC-7721 cells assessed as inhibition of cell proliferation incubated for 72 hrs by MTT assay; assay type: functional, cell-based; settings: SMMC-7721, 72 h
[2] = Antiproliferative activity against human Doxorubicin-resistant SMMC-7721 cell assessed as inhibition of cell proliferation incubated for 72 hrs by MTT assay; assay type: functional, cell-based; settings: SMMC-7721, 72 h
[3] = Drug resistance index, ratio of IC50 for antiproliferative activity against human SMMC-7721 cells to antiproliferative activity against human Doxorubicin-resistant SMMC-7721 cells; assay type: functional
[4] = Prodrug conversion in rat plasma assessed as half life by measuring parent 10-hydroxyevodiamine derivative release by HPLC analysis; assay type: ADME, cell-free
[5] = Chemical stability of compound at pH 4.6 assessed as residual rate measured after 2 days; assay type: physicochemical; settings: buffer, time 2 day, read-out: Stability
[6] = Chemical stability of compound at pH 7.4 assessed as residual rate measured after 2 days; assay type: physicochemical; settings: buffer, time 2 day, read-out: Stability
[7] = Toxicity in BALB/c nude mouse subcutaneously injected with human Huh-7 cells assessed as change in body weight at 40 mg/kg, ip administered once other day measured after 14 days; assay type: organism-based; settings: in vivo, 336 h, time 14 day
SK-HEP1 [8] = assay: Induction of cell cycle arrest in human SK-HEP1 cells assessed as accumulation of cells at G1 phase 80 nM measured after 24 hrs by flow cytometric assay (reference value: 47.55%); assay type: functional
SK-HEP1 [9] = assay: Induction of cell cycle arrest in human SK-HEP1 cells assessed as accumulation of cells at G2 phase 80 nM measured after 24 hrs by flow cytometric assay (reference value: 22.41%); assay type: functional
SK-HEP1 [10] = assay: Induction of cell cycle arrest in human SK-HEP1 cells assessed as accumulation of cells at G1 phase 20 nM measured after 24 hrs by flow cytometric assay (reference value: 47.55%); assay type: functional
SK-HEP1 [11] = assay: Induction of cell cycle arrest in human SK-HEP1 cells assessed as accumulation of cells at S phase 40 nM measured after 24 hrs by flow cytometric assay (reference value: 30.04%); assay type: functional
Huh-7 [12] = assay: Induction of apoptosis in human Huh-7 cells assessed as early apoptotic cells at 80 nM measured after 24 hrs by Annexin-V-FITC/PI analysis (reference value: 1.04%); assay type: functional
Huh-7 [13] = assay: Induction of apoptosis in human Huh-7 cells assessed as late apoptotic cells at 80 nM measured after 24 hrs by Annexin-V-FITC/PI analysis (reference value: 1.23%); assay type: functional
Huh-7 [14] = assay: Induction of apoptosis in human Huh-7 cells assessed as early apoptotic cells at 20 nM measured after 24 hrs by Annexin-V-FITC/PI analysis (reference value: 1.04%); assay type: functional
Huh-7 [15] = assay: Induction of apoptosis in human Huh-7 cells assessed as late apoptotic cells at 20 nM measured after 24 hrs by Annexin-V-FITC/PI analysis (reference value: 1.23%); assay type: functional
SK-HEP1 [16] = assay: Induction of apoptosis in human SK-HEP1 cells assessed as viable cells at 80 nM measured after 24 hrs by Annexin-V-FITC/PI analysis (reference value: 97.20%); assay type: functional; settings: read-out: Activity
SK-HEP1 [17] = assay: Induction of apoptosis in human SK-HEP1 cells assessed as late apoptotic cells at 80 nM measured after 24 hrs by Annexin-V-FITC/PI analysis (reference value: 0.64%); assay type: functional
SK-HEP1 [18] = assay: Induction of apoptosis in human SK-HEP1 cells assessed as late apoptotic cells at 20 nM measured after 24 hrs by Annexin-V-FITC/PI analysis (reference value: 0.64%); assay type: functional
SK-HEP1 [19] = assay: Induction of apoptosis in human SK-HEP1 cells assessed as viable cells at 40 nM measured after 24 hrs by Annexin-V-FITC/PI analysis (reference value: 97.20%); assay type: functional; settings: read-out: Activity
SK-HEP1 [20] = assay: Induction of apoptosis in human SK-HEP1 cells assessed as necrotic cells at 40 nM measured after 24 hrs by Annexin-V-FITC/PI analysis (reference value: 0.70%); assay type: functional
Huh-7 [21] = assay: Induction of apoptosis in human Huh-7 cells assessed as loss of mitochondrial membrane potential by measuring JC-1 stained cells at 20 nM measured after 24 hrs by JC-1 staining based flow cytometry (reference value: 2.27%); assay type: functional
Huh-7 [22] = assay: Induction of apoptosis in human Huh-7 cells assessed as loss of mitochondrial membrane potential by measuring JC-1 stained cells at 40 nM measured after 24 hrs by JC-1 staining based flow cytometry (reference value: 2.27%); assay type: functional
SK-HEP1 [23] = assay: Induction of apoptosis in human SK-HEP1 assessed as loss of mitochondrial membrane potential by measuring JC-1 stained cells at 40 nM measured after 24 hrs by JC-1 staining based flow cytometry (reference value: 0.49%); assay type: functional
SK-HEP1 [24] = assay: Induction of apoptosis in human SK-HEP1 cells assessed as ROS generation by measuring DCFH2-DA stained cells at 40 nM measured after 24 hrs […] (reference value: 0.14%); assay type: functional
Huh-7 [25] = assay: Inhibition of cell invasion in human Huh-7 cells assessed as decrease in number of cells migration into lower compartment at 10 nM measured after 24 hrs by transwell assay; assay type: functional, cell-based
SK-HEP1 [26] = assay: Inhibition of cell migration in human SK-HEP1 cells at 40 nM measured for 24 hrs by scratch wound healing assay; assay type: functional, cell-based
SK-HEP1 [27] = assay: Inhibition of cell invasion in human SK-HEP1 cells assessed as decrease in number of cells migration into lower compartment at 40 nM measured after 24 hrs by transwell assay; assay type: functional, cell-based
SK-HEP1 [28] = assay: Inhibition of cell invasion in human SK-HEP1 cells assessed as decrease in number of cells migration into lower compartment at 20 nM measured after 24 hrs by transwell assay; assay type: functional, cell-based
[29] = Toxicity in BALB/c nude mouse subcutaneously injected with human Huh-7 cells assessed as changes in spleen tissue at 10 mg/kg, ip administered once daily measured after 14 days by H and E staining based assay; assay type: organism-based; settings: in vivo, 336 h, time 14 day
[30] = Toxicity in BALB/c nude mouse subcutaneously injected with human Huh-7 cells assessed as changes in kidney tissue at 10 mg/kg, ip administered once daily measured after 14 days by H and E staining based assay; assay type: organism-based; settings: in vivo, 336 h, time 14 day
[31] = Toxicity in BALB/c nude mouse subcutaneously injected with human Huh-7 cells assessed as change in platelet level at 10 mg/kg, ip administered once daily measured after 14 days; assay type: organism-based; settings: in vivo, 336 h, time 14 day
[32] = Toxicity in BALB/c nude mouse subcutaneously injected with human Huh-7 cells assessed as change in white blood cells at 10 mg/kg, ip administered once daily measured after 14 days; assay type: organism-based; settings: in vivo, 336 h, time 14 day
[33] = Toxicity in BALB/c nude mouse subcutaneously injected with human Huh-7 cells assessed as change in red blood cells at 10 mg/kg, ip administered once daily measured after 14 days; assay type: organism-based; settings: in vivo, 336 h, time 14 day
[34] = Toxicity in BALB/c nude mouse subcutaneously injected with human Huh-7 cells assessed as animal death at 40 mg/kg, ip administered once daily measured after 14 days; assay type: organism-based; settings: in vivo, 336 h, time 14 day

SMILES: C[N+](C)(C)CCC(=O)Oc1ccc2[nH]c3c(c2c1)CCN1C(=O)c2cc(F)cc(F)c2N(c2cccc(F)c2)C31.[I-] (stereo unspecified)
- IC50 (HepG2): 90 nM
- IC50 (SK-HEP1 [1]): 30 nM
- IC50 (SMMC-7721): 90 nM
- IC50 [2]: 110 nM
- Ratio [3]: 1.2
- t1/2 [4]: 30 min
- remaining at 48 h [5]: 63.1%
- remaining at 48 h [6]: 43.9%
- Activity [7]: Non-Toxic
- Activity (SK-HEP1 [8]): 13.31%
- Activity (SK-HEP1 [9]): 68.55%
- Activity (SK-HEP1 [10]): 47.61%
- Activity (SK-HEP1 [11]): 31.15%
- Activity (Huh-7 [12]): 7.8%
- Activity (Huh-7 [13]): 11.64%
- Activity (Huh-7 [14]): 1.31%
- Activity (Huh-7 [15]): 2.03%
- viability at 0.08 µM (SK-HEP1 [16]): 64.7%
- Activity (SK-HEP1 [17]): 11.59%
- Activity (SK-HEP1 [18]): 0.71%
- viability at 0.04 µM (SK-HEP1 [19]): 93.1%
- Activity (SK-HEP1 [20]): 0.49%
- Activity (Huh-7 [21]): 2.23%
- Activity (Huh-7 [22]): 3.05%
- Activity (SK-HEP1 [23]): 1.49%
- Activity (SK-HEP1 [24]): 13.95%
- inhibition (Huh-7 [25]): Active
- inhibition (SK-HEP1 [26]): Active
- inhibition (SK-HEP1 [27]): Active
- inhibition (SK-HEP1 [28]): Active
- Activity [29]: Non-Toxic
- Activity [30]: Non-Toxic
- Activity [31]: Non-Toxic
- Activity [32]: Non-Toxic
- Activity [33]: Non-Toxic
- Activity [34]: Toxic
